# According to patent US20020061862A1, “Inducible nitric oxide synthase for treatment of disease” (University of Pittsburgh of the Commonwealth System of …, priority 1992, published 2002):
# Legend:
# [1] = test system: sheep pulmonary artery endothelial cells (SPAEC); assay type: cell-based; details: L-NMA 0.5 mM, BH4 100 μM
# 3T3-iNOS cells = assay: NO2- production (iNOS activity) in transfected 3T3-iNOS cells; assay type: cell-based, murine; details: MTX 12.5 μM
# Experimental: Cells were passaged to 6 well plates at a density of 1×10^5 cells/well 24 h prior to transfection. For 3T3 cells, each well of cells was transfected with a mixture of 1 μg plasmid DNA and 6 μg of Lipofectamine (GIBCO) in OPTIMEM-I media for 5 h. For RSMC, a ratio of 1 μg DNA to 7 μl of Lipofectamine was used. Following the incubation period, the transfection solution was removed and normal growth medium replaced. The transfection efficiency was estimated by X-gal staining of pIEP-lacZ transfected cells. All studies were performed at 24-72 h post-transfection.
# Twenty four hours following transfection, the cell medium was then replaced with fresh medium and the cells were cultured for an additional 24 h at which time the supernatants were assayed for accumulated NO2 using the Griess reaction (Geller, et al., 1993, Proc. Natl. Acad. Sci. USA: 90:522-526). Measurements were also performed in the presence of L-NMA (1 mM), BH4 (100 μM), and methotrexate (MTX 12.5 μM). The cells were lysed with 0.1 M NaOH and the protein concentration was quantified with the BCA protein assay. To assess the requirement for compression of GTPCH and iNOS in the same cell, 3T3 cells were transfected with either pIEPlacZ or pCIS-GTPCH. […] Cells were allowed to attach overnight and NO2− levels were measured 24 h later.
# [2] = test system: ecNOS mRNA and protein in SPAEC; assay: Northern and Western blot for ecNOS expression in SPAEC; assay type: cell-based, sheep; details: 1 mM, 6 h, versus SPAEC treated with the parent compound
# Experimental: Aliquots (20 μg) of RNA were electrophoresed on a 0.9% agarose gel and blotted to GeneScreen (DuPontNEN; Boston, Mass.). After prehybridization, the membranes were hybridized to a DNA probe as described (Geller, et al., 1993, Proc. Natl. Acad. Sci. USA 90:522-526). A 2.3 kb human iNOS cDNA fragment served as the iNOS probe while a 4.1 kb human endothelial cNOS cDNA fragment served as the ecNOS probe. 18S rRNA served as a control for relative RNA loading.
# The cells were lysed by three freeze-thaw cycles, and the cytosolic fraction was isolated by centrifugation at 100,000×g for 60 min at 4° C. as previously described (Luss, et al., 1994, Biochem. Biophys. Res. Comm. 204-2: 635-640). Protein concentrations were measured with the BCA protein assay (Pierce; Rockford, Ill.). For whole cell preparations, a similar procedure was performed without the centrifugation step.
# Cell cytosols (100μg) were electrophoresed through an 8% SDS-polyacrylamide gel and transferred to nitrocellulose membranes (Schleicher Schuell; Keene, N.H.) as described (Laemmli, 1970, Nature 227: 680-685). […]
compound,measurement,setting,value
"CNC(=N)NCCC[C@H](N)C(=O)O [L-NMA, N^G-monomethyl-L-arginine]",effect of agent added to culture medium on nitrogen oxide synthesis / NO2^− production of SPAEC/DFG-iNOS-Neo,[1],inhibited
"CN(Cc1cnc2nc(N)nc(N)c2n1)c1ccc(C(=O)N[C@@H](CCC(=O)O)C(=O)O)cc1 [MTX, methotrexate]",reduction of iNOS activity recovered by BH4 supplementation,"3T3-iNOS cells; 3T3-iNOS, FIG. 23",over 5 fold
same,reduction of iNOS activity,3T3-iNOS cells; pCIS-GTPCH transfected 3T3iNOS cells,50%
"CC(=O)N[C@H](C(=O)O)C(C)(C)SN=O [SNAP, S-nitroso-N-acetyl-penicillamine]",increase in ecNOS mRNA,[2],1.5 fold
